Measured values taken from publication PMC8698070, “The Zoonotic Helminth Parasite Fasciola hepatica: Virulence-Associated Cathepsin B and Cathepsin L Cysteine Peptidases Secreted by Infective Newly Excysted Juveniles (NEJ)” (Animals : an Open Access Journal from MDPI, 2021).
Several values for one entry are separate records, joined by “and”; a condition that tells them apart may be missing. Identical values can stand only once. Entries after “also recorded” stand apart in the source; their conditions may differ. Like-named read-outs stand apart in the source and are kept apart here. Where a SMILES comes first, the peptide text is derived from it. The star is where a group is joined. Cbz = O=C(OCc1ccccc1)*

Key:
FhCB3 = FhCB3 (Fasciola hepatica, UniProt A7UNB2); test: Inhibition of recombinant FhCB3, fluorogenic substrate assay (Z-Val-Ile-Arg-AMC); type: biochemical; conditions: for inhibition of enzymatic activity (inhibitor screen, Figure 5), in words: FhCB3, inhibitor 1000-15 nM
Protocol: (§1) Recombinant peptidases were assayed for enzymatic activity using a fluorogenic substrate assay. The reactions were carried out in 0.1 M C-P buffer (pH 7.0) with 1 mM DTT in a final volume of 200 μL, in a black 96-well plate. Each well contained activated enzyme (140 nM) and 20 μM fluorogenic substrate, which was added to start the reaction. All assays were run in triplicate at 37 °C for 1 h. Enzyme activity was monitored by rate of hydrolysis and subsequent release of the AMC group on the synthetic peptide substrates at an excitation wavelength of 370 nm and an emission wavelength of 460 nm, as relative fluorescence units (RFU), in a PolarStar Omega Spectrophotometer (BMG Labtech, Aylesbury, UK). All data were plotted and analysed using MARS Data Analysis Software (BMG Labtech, UK) and GraphPad Prism version 5.
(§2) Commercially available inhibitors of cathepsin B (Ca074 and Ca074-OMe), cathepsin L (L, L1, LII, LIII and LIV), cathepsin K (KI, KII and KIII) and cathepsin S were purchased from Merck Millipore (Cork, Ireland; Supplementary Figure S2). The broad-spectrum papain peptidase inhibitor Z-Phe-Ala-FMK was purchased from Enzo Life Sciences (Exeter, UK). These were used to determine and compare the inhibition constant (Ki) against the recombinant FhCBs and FhCL3. All the assays were carried out in 0.1 M C-P buffer with 1 mM DTT and 0.01% Brij® L23, at the pH corresponding to the optimum for each enzyme in a total 200 µL reaction volume. The peptidases (140 nM) were pre-incubated with the inhibitor (1000-15 nM) at room temperature, for 30 min, before starting the reaction by the addition of the substrate that was optimal for each enzyme (FhCB1, Z-Phe-Arg-AMC; FhCB2 and FhCB3, Z-Val-Ile-Arg-AMC; FhCL3, Z-Gly-Pro-Arg-AMC). Substrate concentrations were equal to KM (shown in Table 1) and the apparent inhibition constant (Ki^app) values were calculated with GraphPad Prism 5, using the Morrison equation for tight binding inhibition (Equation (3)). For competitive inhibitors, such as those used in this study, Ki^app was fitted to a second equation (Equation (4)) from which Ki can be determined. (3) vi/vo=1−([E])+[I]+Kiapp)−([E]+[I]+Kiapp)^2−4[E][I] /2[E] (4) Kiapp=Ki(1+[S]/KM)

FhCL3 = FhCL3 (Fasciola hepatica, UniProt A0A879R2T5); test: Inhibition of recombinant FhCL3, fluorogenic substrate assay (Z-Gly-Pro-Arg-AMC); type: biochemical; conditions: for inhibition of enzymatic activity (inhibitor screen, Figure 5), in words: FhCL3, inhibitor 1000-15 nM
Protocol: as §1, §2

cathepsin L1 (HsCL1) = biological target: T1, cathepsin L1 (HsCL1) (Homo sapiens, UniProt P07711); test: Inhibitor screen against human cathepsin L1 control; type: biochemical
T1 construct: purchased Sigma-Aldrich; host or cells: human embryonic kidney cells
Text: (§3) The Schistosoma mansoni cathepsin B1 (SmCB1) was also produced in our laboratory using P. pastoris as described above. The human cathepsin B (HsCB) and cathepsin L1 (HsCL1) were produced in human embryonic kidney cells (Sigma-Aldrich).
as §2
A panel of 12 commercially available cysteine peptidase inhibitors that preferentially target mammalian cathepsin B (Ca074 and Ca074-OMe), cathepsin L (L, L1, LII, LIII and LIV) cathepsin S (S) and cathepsin K (KI, KII and KIII) were screened against the FhCBs, FhCL3 and, as controls, HsCB and HsCL1. The broad-range cysteine peptidase inhibitor Z-Phe-Ala-FMK was also included (Figure 5).
Figure 5 Profile of inhibition of FhCB1, FhCB2, FhCB3 and FhCL3. Commercially available inhibitors of cathepsin B (Ca074 and Ca07a-OMe), cathepsin L (L, L1, LII, LIII and LIV), cathepsin K (KI, KII and KIII), cathepsin S and the broad-spectrum papain peptidase inhibitor Z-Phe-Ala-FMK (A–L) were used to determine and compare the inhibition constant against recombinants FhCB1, FhCB2, FhCB3, FhCL3, HsCB and HsCL1. Activity is represented as the percentage of enzymatic activity observed by hydrolysis of a fluorogenic quenched peptide substrate following a pre-incubation with inhibitor in relation to the activity of the enzyme alone. Error bars indicate standard deviation of three replicates.

FhCB2 = FhCB2 (Fasciola hepatica, UniProt A5X493); test: Inhibition of recombinant FhCB2, fluorogenic substrate assay (Z-Val-Ile-Arg-AMC); type: biochemical; conditions: for inhibition of enzymatic activity (inhibitor screen, Figure 5), in words: FhCB2, inhibitor 1000-15 nM; for Ki: read-out: inhibition constant Ki
Protocol: as §1, §2

human cathepsin B (HsCB) = biological target: T2, human cathepsin B (HsCB) (Homo sapiens, UniProt P07858); test: Inhibitor screen against human cathepsin B control; type: biochemical
T2 construct: purchased Sigma-Aldrich; host or cells: human embryonic kidney cells
Text: as §3
as §2, with “All the assays were carried out in 0.1 M C-P buffer with 1 mM DTT and 0.01% Brij® L23, at the pH corresponding to the optimum for each enzyme in a total 200 µL reaction volume. The peptidases (140 nM) were pre-incubated with the inhibitor (1000-15 nM) at room temperature, for 30 min, before starting the reaction by the addition of the substrate that was optimal for each enzyme (FhCB1, Z-Phe-Arg-AMC; FhCB2 and FhCB3, Z-Val-Ile-Arg-AMC; FhCL3, Z-Gly-Pro-Arg-AMC).” left out
The broad-range cysteine peptidase inhibitor Z-Phe-Ala-FMK was also included (Figure 5).
Figure 5 Profile of inhibition of FhCB1, FhCB2, FhCB3 and FhCL3. Commercially available inhibitors of cathepsin B (Ca074 and Ca07a-OMe), cathepsin L (L, L1, LII, LIII and LIV), cathepsin K (KI, KII and KIII), cathepsin S and the broad-spectrum papain peptidase inhibitor Z-Phe-Ala-FMK (A–L) were used to determine and compare the inhibition constant against recombinants FhCB1, FhCB2, FhCB3, FhCL3, HsCB and HsCL1. […] Error bars indicate standard deviation of three replicates.

FhCB1 = FhCB1 (Fasciola hepatica, UniProt Q8I7B2); test: Inhibition of recombinant FhCB1, fluorogenic substrate assay (Z-Phe-Arg-AMC); type: biochemical; conditions: for inhibition of enzymatic activity (inhibitor screen, Figure 5), in words: FhCB1, inhibitor 1000-15 nM; for Ki: read-out: inhibition constant Ki
Protocol: as §1, §2

[1] = tested on: F. hepatica metacercariae; set-up: method as in PMID 19443417; conditions: final concentration of 1 mM; cited from earlier work
[2] = tested on: F. hepatica metacercariae; test: Excystment of F. hepatica metacercariae in vitro; type: cell-based, Fasciola hepatica; conditions: 100 μM inhibitor, 3 h, 37 °C, 50 metacercariae per well; vs DMSO control
Protocol: F. hepatica metacercariae (Italian isolate; Ridgeway Research, Saint Briavels, UK) were prepared for excystment as previously described by Robinson et al.. To verify the effect of the cathepsin peptidase inhibitors on the ability of the metacercariae to excyst, 50 metacercariae per well were placed into a 24-well plate and 1 mL of excystment medium (0.6% sodium bicarbonate, 0.45% sodium chloride, 0.4% sodium tauroglycocholate, 0.025 N HCl and 0.4% L-cysteine) supplemented with 100 μM of the inhibitor was added to the well. As controls, we used PBS and dimethylsulfoxide (DMSO, 1:100; Sigma-Aldrich) alone. The plate was then incubated at 37 °C with 5% CO2, for 3 h to allow metacercarial excystment. Using a light microscope (25× magnification), the number of excysted NEJ was determined.

human cathepsins B = biological target: human cathepsins B; set-up: method as in PMID 10964677; conditions: human cathepsin B; cited from earlier work
F. hepatica NEJ = test: Viability of NEJ in culture; type: cell-based, Fasciola hepatica; conditions: 100 μM inhibitor, 24 h culture, compared to the DMSO group
Protocol: NEJ were washed three times in a culturing medium (RPMI-1640 medium supplemented with 30 mM HEPES, 0.1% glucose, 10% foetal bovine serum and 50 μg/mL of gentamicin) and their viability assessed by culturing the parasites in 1 mL of culture medium containing 100 μM of the inhibitor at 5% CO2 at 37 °C for 24 h. After incubation, the number of moribund/dead parasites were counted using a light microscope (25× magnification). The criteria used to assess the NEJ viability were loss of motility and peristaltic movement and any obvious damage to the tegument or internal structures, as previously standardized by. The experiments were performed in triplicate. The average of the replicate experimental data was subjected to a two-way ANOVA comparing the values obtained with each inhibitor against the mean of the DMSO control group, with minimum 95% confidence intervals. All the statistical analyses were performed using GraphPad Prism 5.

human cathepsins S = biological target: human cathepsins S; set-up: method as in PMID 10964677; conditions: human cathepsin S; cited from earlier work
[3] = recombinant FhCB3 140 nM, 30 min pre-incubation, substrate Z-Val-Ile-Arg-AMC at KM, optimum pH, ± SEM, read-out: inhibition constant Ki
[4] = recombinant FhCL3 140 nM, 30 min pre-incubation, substrate Z-Gly-Pro-Arg-AMC at KM, optimum pH, ± SEM, read-out: inhibition constant Ki
[5] = recombinant FhCB2 140 nM, 30 min pre-incubation, substrate Z-Val-Ile-Arg-AMC at KM, optimum pH, ± SEM
[6] = inhibition constant Ki, recombinant FhCL3 140 nM, 30 min pre-incubation, substrate Z-Gly-Pro-Arg-AMC at KM, optimum pH, ± SEM
[7] = recombinant FhCB1 140 nM, 30 min pre-incubation, substrate Z-Phe-Arg-AMC at KM, optimum pH, ± SEM

FhCB1, sequence (Q8I7B2 entry or part of it): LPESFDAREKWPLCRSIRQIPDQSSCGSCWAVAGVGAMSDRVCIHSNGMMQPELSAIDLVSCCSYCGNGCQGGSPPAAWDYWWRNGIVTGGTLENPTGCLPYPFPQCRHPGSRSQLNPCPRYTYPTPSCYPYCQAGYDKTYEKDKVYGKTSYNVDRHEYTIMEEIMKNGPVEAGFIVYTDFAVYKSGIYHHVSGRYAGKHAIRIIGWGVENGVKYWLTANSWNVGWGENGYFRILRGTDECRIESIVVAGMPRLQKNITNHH
FhCL3, sequence (A0A879R2T5 entry or part of it): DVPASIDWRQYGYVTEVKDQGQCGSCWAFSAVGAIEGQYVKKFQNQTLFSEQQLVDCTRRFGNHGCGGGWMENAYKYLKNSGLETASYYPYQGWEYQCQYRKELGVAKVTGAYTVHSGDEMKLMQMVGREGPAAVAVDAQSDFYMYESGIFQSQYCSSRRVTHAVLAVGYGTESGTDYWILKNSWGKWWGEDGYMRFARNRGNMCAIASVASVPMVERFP
FhCB2, sequence (A5X493 entry or part of it): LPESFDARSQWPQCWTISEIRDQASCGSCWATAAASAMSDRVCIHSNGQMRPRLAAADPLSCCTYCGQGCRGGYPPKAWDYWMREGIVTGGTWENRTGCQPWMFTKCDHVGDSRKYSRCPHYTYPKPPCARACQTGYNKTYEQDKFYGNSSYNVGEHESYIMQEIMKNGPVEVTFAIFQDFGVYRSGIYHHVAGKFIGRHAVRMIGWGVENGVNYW
FhCB3, sequence (A7UNB2 entry or part of it): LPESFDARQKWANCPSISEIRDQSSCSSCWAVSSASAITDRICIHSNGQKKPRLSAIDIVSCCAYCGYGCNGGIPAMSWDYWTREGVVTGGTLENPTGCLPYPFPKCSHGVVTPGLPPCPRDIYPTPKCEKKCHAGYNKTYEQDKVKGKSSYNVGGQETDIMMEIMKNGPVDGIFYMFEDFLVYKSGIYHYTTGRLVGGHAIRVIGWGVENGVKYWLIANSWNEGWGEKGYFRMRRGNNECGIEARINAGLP
T1 sequence (P07711 114-333): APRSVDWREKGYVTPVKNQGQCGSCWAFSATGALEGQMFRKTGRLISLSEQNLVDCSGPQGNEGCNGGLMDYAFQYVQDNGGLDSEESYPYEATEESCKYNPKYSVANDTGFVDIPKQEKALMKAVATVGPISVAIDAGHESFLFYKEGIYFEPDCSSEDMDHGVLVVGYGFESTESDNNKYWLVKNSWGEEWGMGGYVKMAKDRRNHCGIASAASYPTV

SMILES | inhibition of enzymatic activity (inhibitor screen, Figure 5), in words (FhCB3) | Ki (FhCB3; [3]) [µM] | inhibition of enzymatic activity (inhibitor screen, Figure 5), in words (FhCL3) | Ki (FhCL3; [4]) [µM] | inhibition of enzymatic activity (inhibitor screen, Figure 5), in words (FhCB2) | Ki (FhCB2; [5]) [µM] | inhibition of enzymatic activity (inhibitor screen, Figure 5), in words (human cathepsin B (HsCB)) | inhibition of enzymatic activity (inhibitor screen, Figure 5), in words (FhCB1) | Ki (FhCB3) [µM] | Ki (FhCL3; [6]) [µM] | Ki (FhCB1; [7]) | also measured
O=CC(Cc1ccc(O)cc1)NC(=O)C(Cc1ccccc1)NC(=O)OCc1ccccc1 (stereo not drawn) [LII] (Cbz-Phe-Tyr-aldehyde; configuration not given here) | most effective at reducing the enzymatic activity | 0.211 ± 0.0348 | most effective at reducing the enzymatic activity | 0.008 ± 0.0006 | most effective at reducing the enzymatic activity | 1.84 ± 0.077 | inhibited | most effective at reducing the enzymatic activity |  |  |  | inhibition of enzymatic activity (inhibitor screen, Figure 5), in words (cathepsin L1 (HsCL1)): specificity for HsCL1 over HsCBs; also recorded: inhibited
C[C@H](NC(=O)[C@H](Cc1ccccc1)NC(=O)OCc1ccccc1)C(=O)CF [Z-Phe-Ala-FMK] |  |  |  |  |  |  |  |  | 0.246 ± 0.0557 | 0.015 ± 0.00595 | < 0.015 µM and 0.003 µM | effect on metacercariae excystment [1]: completely prevented; reduction of metacercariae excystment [2]: more than 50%
CCCNC(=O)[C@H]1O[C@@H]1C(=O)N[C@H](C(=O)N1CCC[C@H]1C(=O)O)[C@@H](C)CC [Ca074] | poor inhibitors; also recorded: very poor inhibitors | 0.54 ± 0.0452 | poor inhibitors | 0.603 ± 0.133 | poor inhibitors; also recorded: very poor inhibitors | 5.93 ± 0.567 | selective for HsCB compared to HsCL1 | poor inhibitors; also recorded: very poor inhibitors |  |  | 7.32 ± 0.934 µM | inhibition constant Ki (FhCB3; recombinant FhCB3 140 nM, 30 min pre-incubation, substrate Z-Val-Ile-Arg-AMC at KM, optimum pH, ± SEM): poor inhibition; inhibition constant Ki (FhCL3; recombinant FhCL3 140 nM, 30 min pre-incubation, substrate Z-Gly-Pro-Arg-AMC at KM, optimum pH, ± SEM): poor inhibition; inhibition constant Ki (FhCB2; [5]): poor inhibition; inhibition constant Ki (FhCB1; [7]): poor inhibition
CC(C)C[C@H](NC(=O)[C@H](Cc1ccccc1)NC(=O)OCc1ccccc1)C(=O)C=O [S] |  |  |  |  |  |  |  |  | 0.696 ± 0.0948 | 0.035 ± 0.0024 | 0.014 ± 0.00242 µM | Ki (human cathepsins B): 0.076 µM; reduction of NEJ viability (survival) (F. hepatica NEJ): ~ 55%; Ki (human cathepsins S): 0.000185 µM
